Test results taken from ChEMBL document CHEMBL5053490, “Fusaricide is a Novel Iron Chelator that Induces Apoptosis through Activating Caspase-3” (J Nat Prod, 2021).
Calls of active or inactive are those of the source. The rule behind the calls is not given here.

What was measured:
Assay type in all cases: functional, cell-based
NCI-H460 [1] = experiment: Cytotoxicity against human NCI-H460 cells assessed as cell viability rescue at 10 uM incubated for 24 hrs in presence of Fecl3 by CCK8 assay
NCI-H226 = experiment: Cytotoxicity against human NCI-H226 cells assessed as cell viability rescue at 10 uM incubated for 24 hrs in presence of Fecl3 by CCK8 assay
NCI-H1299 = experiment: Cytotoxicity against human NCI-H1299 cells assessed as cell viability rescue at 10 uM incubated for 24 hrs in presence of Fecl3 by CCK8 assay
NCI-H460 [2] = experiment: Cytotoxicity against human NCI-H460 cells assessed as reduction in cell viability incubated for 24 hrs by CCK8 assay; details: NCI-H460, 24 h
NCI-H460 [3] = experiment: Cytotoxicity against human NCI-H460 cells assessed as reduction in cell viability incubated for 48 hrs by CCK8 assay; details: NCI-H460, 48 h

Row | SMILES | Activity (NCI-H460 [1]) | Activity (NCI-H226) | Activity (NCI-H1299) | IC50 (NCI-H460 [2]) | IC50 (NCI-H460 [3])
1 | CC(=O)O[C@H]1C(=O)[C@@]2(C)[C@H]([C@H](OC(=O)c3ccccc3)[C@]3(O)C[C@H](OC(=O)[C@H](O)[C@@H](NC(=O)c4ccccc4)c4ccccc4)C(C)=C1C3(C)C)[C@]1(OC(C)=O)CO[C@@H]1C[C@@H]2O | inactive | inactive | inactive | – | –
2 | O=C(O)c1ccc(-n2nc(-c3ccccc3O)nc2-c2ccccc2O)cc1 [DEFERASIROX] | – | – | – | 98.4 µM | 20.4 µM
